Consider 12 compounds from ChEMBL document CHEMBL4428116, “Synthesis, molecular modeling and SAR study of novel pyrazolo[5,1-f][1,6]naphthyridines as CB2 receptor antagonists/inverse agonists” (Bioorg Med Chem, 2016).

Test [1] deals with T1, Cannabinoid receptor 2 (Homo sapiens, UniProt P34972). In words: Displacement of [3H]CP-55,940 from human CB2 receptor expressed in CHO cell membrane after 60 mins by scintillation counting method. It is filed as cell membranes. (In general: In a radioligand displacement assay an active substance lowers the binding of a labelled ligand.)
For the next test, the target named is Cannabinoid receptor 1 (Homo sapiens, UniProt P21554). The test can be described thus: Displacement of [3H]CP-55,940 from human CB1 receptor expressed in CHO cell membrane after 90 mins by scintillation counting method. Type of test: cell membranes.
A further test is filed under the species Homo sapiens. In words: Selectivity ratio of Ki for human CB1 receptor expressed in CHO cell membrane to Ki for human CB2 receptor expressed in CHO cell membrane. It is filed as cell-based.
In test [2] the target is T1, Cannabinoid receptor 2. The test can be described thus: Antagonist activity at human CB2 receptor expressed in CHO cells assessed as inhibition of WIN 55,212-2-induced reduction in forskolin-stimulated cAMP accumulation by Schild plot analysis. Type of test: functional, cell-based. For orientation: cAMP levels reflect the balance of adenylyl cyclase and phosphodiesterase activity.

Test [3] concerns the target T1, Cannabinoid receptor 2. In words: Antagonist activity at human CB2 receptor expressed in CHO cells assessed as inhibition of WIN 55,212-2-induced reduction in forskolin-stimulated cAMP accumulation at 0.1 to 10 uM by immunoassay. It is filed as functional, cell-based.
Test [4] concerns the target T1, Cannabinoid receptor 2. In words: Inverse agonist activity at human CB2 receptor expressed in CHO cells assessed as increase in forskolin-stimulated cAMP production at 1 to 10 uM by immunoassay. Type of test: functional, cell-based.
The target in test [5] is T1, Cannabinoid receptor 2. In words: Inverse agonist activity at human CB2 receptor expressed in CHO cells assessed as increase in forskolin-stimulated cAMP production at 0.1 uM by immunoassay. It is filed as functional, cell-based.
In test [6] the target is T1, Cannabinoid receptor 2. The test can be described thus: Antagonist activity at human CB2 receptor expressed in CHO cells assessed as inhibition of WIN 55,212-2-induced reduction in forskolin-stimulated cAMP accumulation by immunoassay. Type of test: functional, cell-based.
For a further test, the species on record is Mus musculus. The test can be described thus: Selectivity ratio of Ki for CB1 receptor in CD-1 mouse cerebellum membrane to Ki for CB2 receptor in CD-1 mouse spleen homogenate. Type of test: cell membranes.

pKi: −log10 of the molar value. Calls of active or inactive are those of the source. No cut-off for these calls is given here.

Sequence of Cannabinoid receptor 1 (P21554 whole entry): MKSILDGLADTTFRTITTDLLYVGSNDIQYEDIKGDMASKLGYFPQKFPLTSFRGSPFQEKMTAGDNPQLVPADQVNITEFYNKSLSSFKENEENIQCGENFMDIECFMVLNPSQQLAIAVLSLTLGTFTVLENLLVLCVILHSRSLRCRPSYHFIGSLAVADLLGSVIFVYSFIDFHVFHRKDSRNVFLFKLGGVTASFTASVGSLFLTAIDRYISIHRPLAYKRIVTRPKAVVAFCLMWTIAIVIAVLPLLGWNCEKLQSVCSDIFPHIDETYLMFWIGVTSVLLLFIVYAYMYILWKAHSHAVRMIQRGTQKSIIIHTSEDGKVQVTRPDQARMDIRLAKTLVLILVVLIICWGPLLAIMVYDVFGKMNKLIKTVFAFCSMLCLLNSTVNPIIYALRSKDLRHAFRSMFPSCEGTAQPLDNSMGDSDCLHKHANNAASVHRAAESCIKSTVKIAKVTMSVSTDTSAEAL
T1 sequence (P34972 whole entry): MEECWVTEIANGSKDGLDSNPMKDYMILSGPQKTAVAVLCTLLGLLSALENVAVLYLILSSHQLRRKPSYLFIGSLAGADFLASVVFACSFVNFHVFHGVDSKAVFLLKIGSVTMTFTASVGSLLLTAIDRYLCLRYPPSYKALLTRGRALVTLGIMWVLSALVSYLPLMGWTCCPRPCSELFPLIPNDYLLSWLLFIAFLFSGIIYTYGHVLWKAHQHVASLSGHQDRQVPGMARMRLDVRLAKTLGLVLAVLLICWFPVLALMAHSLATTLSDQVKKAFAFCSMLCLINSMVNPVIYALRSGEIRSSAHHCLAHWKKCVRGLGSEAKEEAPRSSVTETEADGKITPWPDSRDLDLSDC

For `Cc1ccc(-c2cc3ncccc3c3cc(C(=O)NC4C5CC6CC(C5)CC4C6)nn23)cc1` (stereo unspecified), the pKi (as a rule, the Ki on a negative log10 scale, so that one unit is a factor of ten) was 6.88 at Cannabinoid receptor 2 [1] and less than 5.00 on Cannabinoid receptor 1. Further, in the test listed under Homo sapiens, the Ratio Ki is more than 75.
As for `CC1(C)C2CC[C@@H](CNC(=O)c3cc4c5cccnc5cc(-c5ccc(Cl)cc5Cl)n4n3)C1C2` (stereo partly specified), the pKi on Cannabinoid receptor 2 [1] is 7.17; on Cannabinoid receptor 1, less than 5.00. Further, the antagonist equilibrium constant (Kb) – broadly, the equilibrium dissociation constant of an antagonist, usually derived from a functional assay – on Cannabinoid receptor 2 [2] turned out to be 650 nM. For the same compound, on Cannabinoid receptor 2 [3], the inhibition entry is “Active”. Also, in the test filed under Homo sapiens, the Ratio Ki was more than 149. Besides, the outcome on Cannabinoid receptor 2 [4] was Active.
On to `Cc1ccc(-c2cc3ncccc3c3cc(C(=O)N[C@H]4CC5CCC4(C)C5(C)C)nn23)cc1` (stereo partly specified), for which the pKi was 7.28 on Cannabinoid receptor 2 [1] and 5.15 at Cannabinoid receptor 1. In addition, at Cannabinoid receptor 2 [2], the Kb was determined as 505 nM. Further, the inhibition entry at Cannabinoid receptor 2 [3] is “Active”. Also, the Ratio Ki in the test listed under Homo sapiens is 132. Moreover, the outcome at Cannabinoid receptor 2 [4] was Active.
The compound `CC1=C(C(=O)c2cccc3ccccc23)C2C=CC=C3OC[C@@H](CN4CCOCC4)N1C32` (stereo partly specified) showed a pKi on Cannabinoid receptor 1 of 7.89. Also, in the test listed under Homo sapiens, the Ratio Ki was found to be 5.2.
`Cc1ccc(-c2cc3ncccc3c3cc(C(=O)N[C@H]4C5(C)CCC(C5)C4(C)C)nn23)cc1` (stereo partly specified): the pKi was 6.10 at Cannabinoid receptor 2 [1] and 5.66 on Cannabinoid receptor 1. Also, the Ratio Ki in the test listed under Homo sapiens came to 2.7.
In the case of `Cc1ccc(-c2cc3ncccc3c3cc(C(=O)NC4CCCCC4)nn23)cc1`, the values for the pKi on Cannabinoid receptor 2 [1] and at Cannabinoid receptor 1 were 5.67 and less than 5.00, respectively. For the same compound, in the test listed under Homo sapiens, the Ratio Ki was more than 4.7.
`Cc1ccc(-c2cc3ncccc3c3cc(C(=O)NC45CC6CC(CC(C6)C4)C5)nn23)cc1`: at Cannabinoid receptor 2 [5], the outcome was Active. Moreover, the pKi at Cannabinoid receptor 2 [1] was 7.48; at Cannabinoid receptor 1, 5.24. For the same compound, the Kb at Cannabinoid receptor 2 [2] is 316 nM. Besides, the Ratio Ki in the test listed under Homo sapiens stood at 173. Also, on Cannabinoid receptor 2 [6], the inhibition entry was “Dose-dependent effect”.
For the compound `Cc1ccc(-c2cc3ncccc3c3cc(C(=O)NC4C5CC(C[C@@H]4C)C5(C)C)nn23)cc1` (stereo partly specified), the pKi on Cannabinoid receptor 2 [1] is 6.62; on Cannabinoid receptor 1, less than 5.00. Also, the Ratio Ki in the test listed under Homo sapiens was more than 42.
As for `Cc1ccc(-c2cc3ncccc3c3cc(C(=O)N[C@@H]4C[C@H](C)CC[C@H]4C(C)C)nn23)cc1`, the pKi on Cannabinoid receptor 2 [1] was 6.55; on Cannabinoid receptor 1, 5.48. Also, the Ratio Ki in the test listed under Homo sapiens amounted to 12.
In the same order, the values of `Cc1ccc(-c2cc3ncccc3c3cc(C(=O)NC[C@@H]4CCC5CC4C5(C)C)nn23)cc1` (stereo partly specified) are 6.92, less than 5.00 and more than 83.
On to `Cc1ccc2c(c1)Cc1c(C(=O)NN3CCCCC3)nn(-c3ccc(Cl)cc3Cl)c1-2`, for which the Ratio Ki in the test filed under Mus musculus was determined as 9810.
With `Cc1ccc(-c2cc3ncccc3c3cc(C(=O)NN4CCCCC4)nn23)cc1`, the pKi on Cannabinoid receptor 2 [1] is less than 6.00; at Cannabinoid receptor 1, less than 5.00.
